Data on 3 compounds can be found in patent publication US20240277658A1, “NLRP3 ACTIVATORS FOR USE IN THE TREATMENT OF INFECTIOUS DISEASES OR CANCER BY ACTIVATING NLRP3 INFLAMMASOME” (ALBERT-LUDWIGS-UNIVERSITÄT FREIBURG, priority 2020, published 2024).

The structures appear in SMILES notation. Several values for one entry are separate records, joined by “and”; a condition that tells them apart may be missing. Equal values may be shown once. Read-outs that look alike come from different tables or passages of the source.

One series relates to BMDCs. Kind of series: LDH release (lytic cell death, pyroptosis) from LPS-primed BMDCs. It counts as cell-based, mouse. As to conditions: for Average (% positive control): LDH release; for cytotoxicity at 25 µM / cytotoxicity at 50 µM / cytotoxicity at 100 µM: Mus musculus, BMDC. In outline: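 Mouse BMDCs (7-9 days differentiated, GM-CSF) primed with 50 ng ml^−1 E. coli K12 LPS for 3 hours, then exposed 3 hours to compounds (50 μM unless indicated) or activators (nigericin 5 μM; R837, CL097 100 μM). Lytic death measured as LDH release by colorimetric assay, triplicate wells.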

Series [1] deals with T1, NLRP3 inflammasome (Mus musculus, UniProt Q8R4B8).
T1 construct: endogenous in cells; host or cells: primary mouse bone marrow-derived dendritic cells (BMDCs), LPS-primed
T1 sequence (Q8R4B8 whole entry): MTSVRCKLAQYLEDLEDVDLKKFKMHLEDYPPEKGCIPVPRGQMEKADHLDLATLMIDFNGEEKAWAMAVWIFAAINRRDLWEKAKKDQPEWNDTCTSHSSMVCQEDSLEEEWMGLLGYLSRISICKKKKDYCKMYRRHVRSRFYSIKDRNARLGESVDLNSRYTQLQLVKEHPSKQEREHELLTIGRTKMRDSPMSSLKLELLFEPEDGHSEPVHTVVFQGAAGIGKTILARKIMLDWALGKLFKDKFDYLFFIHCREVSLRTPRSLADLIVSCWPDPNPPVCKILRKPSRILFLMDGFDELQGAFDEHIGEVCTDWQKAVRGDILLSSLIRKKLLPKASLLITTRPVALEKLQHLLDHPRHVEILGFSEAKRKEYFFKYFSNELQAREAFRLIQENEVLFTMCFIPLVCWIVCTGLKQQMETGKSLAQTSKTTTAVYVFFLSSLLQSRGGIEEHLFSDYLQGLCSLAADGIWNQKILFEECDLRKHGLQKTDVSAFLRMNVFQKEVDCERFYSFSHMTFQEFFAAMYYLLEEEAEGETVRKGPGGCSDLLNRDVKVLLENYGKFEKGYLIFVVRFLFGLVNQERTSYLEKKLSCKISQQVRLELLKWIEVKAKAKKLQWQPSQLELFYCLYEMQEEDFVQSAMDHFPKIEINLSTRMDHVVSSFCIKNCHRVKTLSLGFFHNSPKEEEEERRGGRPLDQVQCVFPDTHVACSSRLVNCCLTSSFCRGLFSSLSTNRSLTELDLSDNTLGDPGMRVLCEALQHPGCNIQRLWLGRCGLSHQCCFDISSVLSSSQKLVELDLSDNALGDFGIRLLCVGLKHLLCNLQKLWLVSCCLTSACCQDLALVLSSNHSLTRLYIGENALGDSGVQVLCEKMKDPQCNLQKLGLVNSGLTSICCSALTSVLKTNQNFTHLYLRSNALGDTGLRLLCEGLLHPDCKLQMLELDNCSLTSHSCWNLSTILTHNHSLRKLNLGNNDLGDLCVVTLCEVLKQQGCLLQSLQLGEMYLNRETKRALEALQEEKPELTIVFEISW
The experiment in a line: IL-1β release from LPS-primed BMDCs (ELISA) as readout of NLRP3 inflammasome activation. It counts as cell-based. As to conditions: for Average (% positive control): IL-1β release; for IL-1β: single replicates. Summed up: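 NLRP3 inflammasome activation was read out as IL-1β released into the supernatant, measured by ELISA. Murine BMDCs were primed with LPS (50 ng ml^−1, 3 hours), then incubated with compounds for 3 hours, with each condition run in three technical replicates. Nigericin at 5 μM acted as the positive control activator, and IL-1β release was also expressed as a percentage of that control.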
A general note: In an ELISA, binding on a coated surface is turned into a signal by an enzyme label.

The next series relates to TLR7/TLR8. To be noted: background statement; cited from earlier work.
Series [2] relates to mitochondrial respiration. To be noted: Groß et al., Immunity 2016; cited from earlier work.
Another series relates to NLRP3. The experiment in a line: Inflammasome stimulation (IL-1β, LDH release) in BMDCs from NLRP3 knockout or ASC knockout mice. The series is classed as cell-based, mouse. As to conditions: IL-1β and LDH release. As to the method:
(§1) For canonical inflammasome activation BMDCs after 7-9 days of differentiation were harvested and counted with a Neubauer Chamber (Hecht Assistant) and the concentration was set to 1 Mio cells ml^−1. 100 μl cell suspension per well were seeded in 96-well plates. The cells were primed with 50 ng ml^−1 E. coli K12 ultra-pure LPS for 3 hours and subsequently treated with canonical inflammasome activators or experimental compounds for 3 hours if not indicated differently (incubation time FIG. 4D, 5, 7, 8, 11, 13-18: 3 h, FIG. 12: 4 h). Concentrations of the stimuli were as follows if not indicated differently: 5 μM nigericin, 100 μM imiquimod (also known as R837), 100 μM CL097, 100 μM R848, […] poly(dA:dT), 300 μg ml^−1 MSU. If an inhibitor was used before stimuli treatment, the inhibitor was added after 2.5 hours of priming and it was incubated for 30 minutes before inflammasome activation. Inhibitors were used as follows: 3 μM MCC950, 45 mM KCl, 30 μM ebselen (2-Phenyl-1,2-benzoselenazol-3-one), 5 μM cytochalasin D (see FIGS. 8, 11, 12 and 17).
(§2) All inflammasome stimulations were performed in three technical replicates for each condition. Lytic cell death was determined via LDH release (see FIGS. 8, 13-16 and 18), cytokines quantified in cell-free supernatants via ELISA (see FIGS. 4D, 7-9, 11-19) and cell lysates and supernatants analyzed via immunoblotting (see FIGS. 5A and 5B) as previously described in detail (Gross, Olaf, 2012 “Measuring the inflammasome”, Methods in molecular biology, Clifton, N.J., 844, pp. 199-222. Schneider, Katharina S.; Thomas, Christina J.; Groß, Olaf, 2013, “Inflammasome activation and inhibition in primary murine bone marrow-derived cells, and assays for IL-1α, IL-1β, and caspase-1”, Methods in molecular biology, Clifton, N.J., 1040, pp. 117-135).
For orientation: LDH in the medium is a marker of cell lysis.

For series [3], the target named is T1, NLRP3 inflammasome. The experiment in a line: Inflammasome stimulation of BMDCs after pre-incubation with inhibitors (MCC950, KCl, ebselen, cytochalasin D). It counts as cell-based. To be noted: 50 mM extracellular KCl; FIGS. 11 and 17. As to the method: as §1, with “Inhibitors were used as follows: 3 μM MCC950, 45 mM KCl, 30 μM ebselen (2-Phenyl-1,2-benzoselenazol-3-one), 5 μM cytochalasin D (see FIGS. 8, 11, 12 and 17).” left out
as §2

[4] abbreviates: 100 μM, positive control nigericin 5 μM.
The mark [5] stands for this setting: section 1.2, 25 μM, positive control EN22 25 μM.
Setting [6] is: section 1.2, 50 μM, positive control EN22 25 μM.
The mark [7] stands for this setting: section 1.2, 100 μM, positive control EN22 25 μM.

Turning to `CCOCc1nc2c([nH]1)c(N)nc1ccccc12` [CL097, reference compound], the “Average LDH release (% of max.)” value with BMDCs (100 μM, LPS-primed BMDCs) is given as 68.096 % of max. Besides, the “Average (% positive control)” value in the series on BMDCs (setting [4]) was found to be 93.083 % positive control; on NLRP3 inflammasome [1] (setting [4]) it was 119.560 % positive control. The “LDH release (% of max.)” value with BMDCs (single replicates, 100 μM, LPS-primed BMDCs) was 56.511 % of max. and 69.145 % of max. and 62.611 % of max. and 76.051 % of max. and 68.018 % of max. and 76.242 % of max. The “Average IL-1β” value on NLRP3 inflammasome [1] (100 μM, LPS-primed BMDCs) worked out at 8.570 ng/mL. The “IL-1β” value at NLRP3 inflammasome [1] (100 μM, LPS-primed BMDCs) is 7.355 ng/mL and 8.020 ng/mL and 8.660 ng/mL and 8.522 ng/mL and 9.540 ng/mL and 9.324 ng/mL. Besides, the “activation of toll-like receptor-7 (TLR7) and/or TLR8” value in the series on TLR7/TLR8 was “activate”. In series [2], the “inhibition of cellular respiration (mitochondrial electron transport chain)” value is given as “inhibit cellular respiration”.
As to `O=C(Nc1ccc2ncccc2c1)Nc1ccc2ncccc2c1` [EN-A, 1,3-di(quinolin-6-yl)urea], the cytotoxicity at 25 µM in the series on BMDCs (section 1.2, 25 μM, read-out: Average LDH release (% of max.)) is 33.1%; in the series with BMDCs (section 1.2, single replicates, 25 μM, read-out: LDH release (% of max.)), 33.7%. For the same compound, the cytotoxicity at 50 µM turned out to be 32.4% with BMDCs (section 1.2, 50 μM, read-out: Average LDH release (% of max.)) and 32.1% in the series on BMDCs (section 1.2, single replicates, 50 μM, read-out: LDH release (% of max.)). Further, the cytotoxicity at 100 µM stood at 33% in the series on BMDCs (section 1.2, 100 μM, read-out: Average LDH release (% of max.)) and 34.8% with BMDCs (section 1.2, single replicates, 100 μM, read-out: LDH release (% of max.)). The “Average (% positive control)” value stood at 110.581 % positive control with BMDCs (setting [5]); 108.112 % positive control in the series with BMDCs (setting [6]); 110.157 % positive control with BMDCs (setting [7]); 93.430 % positive control on NLRP3 inflammasome [1] (setting [5]); 100.007 % positive control on NLRP3 inflammasome [1] (setting [6]); 101.159 % positive control at NLRP3 inflammasome [1] (setting [7]). Moreover, the “Average IL-1β” value at NLRP3 inflammasome [1] (section 1.2, 25 μM) worked out at 4.696 ng/mL; at NLRP3 inflammasome [1] (section 1.2, 50 μM), 5.026 ng/mL; on NLRP3 inflammasome [1] (section 1.2, 100 μM), 5.084 ng/mL. In addition, the “IL-1β” value on NLRP3 inflammasome [1] (section 1.2, 25 μM) is 5.256 ng/mL and 4.576 ng/mL and 4.256 ng/mL; on NLRP3 inflammasome [1] (section 1.2, 50 μM), 4.819 ng/mL and 5.538 ng/mL and 4.722 ng/mL; on NLRP3 inflammasome [1] (section 1.2, 100 μM), 5.256 ng/mL and 5.328 ng/mL and 4.669 ng/mL. Also, the “characteristics of inflammasome activation in cells isolated from NLRP3 knockout mice” value with NLRP3 is reported as “do not occur”. The “dependence of NLRP3 inflammasome activation on potassium efflux from the cell” value at NLRP3 inflammasome [3] is “independently of potassium efflux”.
For `CC(C)Cn1cnc2c(N)nc3ccccc3c21` [imiquimod, reference compound], the “Average (% positive control)” value in the series on BMDCs (setting [4]) worked out at 35.494 % positive control; at NLRP3 inflammasome [1] (setting [4]) it was 33.144 % positive control. In the series on BMDCs (100 μM, LPS-primed BMDCs, read-out: Average LDH release (% of max.)), the cytotoxicity at 100 µM turned out to be 26%. Further, the “Average IL-1β” value on NLRP3 inflammasome [1] (100 μM, LPS-primed BMDCs) turned out to be 2.376 ng/mL. In addition, at NLRP3 inflammasome [1] (100 μM, LPS-primed BMDCs, listed as R837), the “IL-1β” value was 5.472 ng/mL and 4.151 ng/mL and 1.552 ng/mL and 1.212 ng/mL and 0.958 ng/mL and 0.911 ng/mL. For the same compound, in the series on TLR7/TLR8, the “activation of toll-like receptor-7 (TLR7) and/or TLR8” value was “activate”. The “inhibition of cellular respiration (mitochondrial electron transport chain)” value in series [2] was “inhibit cellular respiration”.
